Laboratory results as given in patent US20120283304A1, “Formulations of Temozolomide for Parenteral Administration” (SAHAJ LIFE SCIENCES PVT. LTD., priority 2009, published 2012).
Read-outs that look alike come from different tables or passages of the source.

Key:
[1] = cited from earlier work
[2] = Chemical parameters (assay and impurities) of the lyophilised formulations; type: physicochemical
Protocol: The formulations were analysed and the data is tabulated below: […]

[3] = cited from earlier work; remark: listed apart in the source

% Assay [2]: 100.3%
% Impurities AIC [2]: 0.02%
% Impurities Any other maximum impurity [2]: Not detected
% Impurities MTC-1 [2]: Not detected
% Impurities Total impurities [2]: 0.04%
Compound: Cn1nnc2c(C(N)=O)ncn2c1=O [Temozolomide, 3-methyl-8-carbamoyl-imidazo[5,1-d]-1,2,3,5-tetrazin-4(3H)-one]
Solubility in water [1]: only slightly soluble
Stability ([3]; acidic pH less than 5): stable
Stability ([3]; pH greater than 7): unstable
